Activity calls are given as the source filed them. The calls are words filed in the database; no cut-off is given here.
Tests used:
[1] = tested on: Mus musculus; test: Hypolipidemic activity in tyloxapol-induced Kunming mouse model of hyperlipidemia assessed as reduction in liver triglyceride level administered orally measured after 24 hrs; type: functional, organism-based
[2] = tested on: Mus musculus; test: Hypolipidemic activity in tyloxapol-induced Kunming mouse model of hyperlipidemia assessed as reduction in serum ALT level administered orally measured after 24 hrs; type: functional, organism-based
[3] = tested on: Mus musculus; test: In vivo effect on PPAR signaling in tyloxapol-induced Kunming mouse model of hyperlipidemia assessed as increase in mTOR phosphorylation in white adipose tissue administered orally measured after 24 hrs by Western blot analysis; type: functional, organism-based
[4] = tested on: Mus musculus; test: In vivo induction of AMPK in tyloxapol-induced Kunming mouse model of hyperlipidemia assessed as decrease in SREBP1-C expression in white adipose tissue at 50 to 100 mg/kg, po measured after 24 hrs by Western blot analysis; type: functional, organism-based; details: dose 50-100 mg/kg
[5] = tested on: 3T3-L1; test: Cytotoxicity against mouse 3T3-L1 cells assessed as reduction in cell viability by MTT assay; type: cell-based
[6] = tested on: Mus musculus; test: Hypolipidemic activity in tyloxapol-induced Kunming mouse model of hyperlipidemia assessed as spleen index at 50 mg/kg, po measured after 24 hrs (reference value: 3.87 +/- 0.05); type: functional
[7] = tested on: 3T3-L1; test: Hypolipidemic activity in mouse 3T3-L1 mature adipocytes assessed as reduction in lipid content at 5 uM by Oil Red O staining based assay relative to control; type: functional; design: scale not given: the % may be the effect or the level left
[8] = tested on: Mus musculus; test: In vivo induction of AMPK in tyloxapol-induced Kunming mouse model of hyperlipidemia assessed as increase in ACC phosphorylation in liver at 50 to 100 mg/kg, po measured after 24 hrs by Western blot analysis; type: functional, organism-based; details: dose 50-100 mg/kg
[9] = tested on: 3T3-L1; test: Activation of AMPK in mouse 3T3-L1 matured adipocytes assessed as increase in AMPK phosphorylation at 1 uM by Western blot analysis relative to control; type: cell-based; details: filed as activator
[10] = tested on: HepG2; test: Hypolipidemic activity in oleic, palmitic, linoleic and arachidonic acid 29:47:18:6 (v/v)-induced hyperlipidemia in human HepG2 cells assessed as reduction in triglyceride content; type: functional, cell-based
[11] = tested on: Mus musculus; test: In vivo induction of AMPK in tyloxapol-induced Kunming mouse model of hyperlipidemia assessed as increase in AKT phosphorylation in liver at 50 to 100 mg/kg, po measured after 24 hrs by Western blot analysis; type: functional, organism-based; details: dose 50-100 mg/kg
[12] = tested on: Mus musculus; test: In vivo effect on PPAR signaling in tyloxapol-induced Kunming mouse model of hyperlipidemia assessed as decrease in PPARgamma expression in liver at 50 to 100 mg/kg, po measured after 24 hrs by Western blot analysis; type: functional, organism-based; details: dose 50-100 mg/kg
[13] = tested on: Mus musculus; test: Hypolipidemic activity in tyloxapol-induced Kunming mouse model of hyperlipidemia assessed as reduction in liver AST level administered orally measured after 24 hrs; type: functional, organism-based
[14] = tested on: 3T3-L1; test: Hypolipidemic activity in mouse 3T3-L1 mature adipocytes assessed as reduction in lipid content at 15 uM by Oil Red O staining based assay relative to control; type: functional; design: scale not given: the % may be the effect or the level left
[15] = tested on: Mus musculus; test: In vivo induction of AMPK in tyloxapol-induced Kunming mouse model of hyperlipidemia assessed as decrease in SREBP1-C expression in liver at 50 to 100 mg/kg, po measured after 24 hrs by Western blot analysis; type: functional, organism-based; details: dose 50-100 mg/kg
[16] = tested on: Mus musculus; test: Hypolipidemic activity in tyloxapol-induced Kunming mouse model of hyperlipidemia assessed as spleen index at 100 mg/kg, po measured after 24 hrs (reference value: 3.87 +/- 0.05); type: functional
[17] = tested on: HepG2; test: Hypolipidemic activity in oleic, palmitic, linoleic and arachidonic acid 29:47:18:6 (v/v)-induced hyperlipidemia in human HepG2 cells assessed as reduction in lipid content by Nile Red and DAPI staining based fluorescence microscopic analysis; type: functional, cell-based
[18] = tested on: HepG2; test: Hypolipidemic activity in oleic, palmitic, linoleic and arachidonic acid 29:47:18:6 (v/v)-induced hyperlipidemia in human HepG2 cells assessed as reduction in lipid content at 10 uM by Oil Red O staining based assay relative to control; type: functional; design: scale not given: the % may be the effect or the level left
[19] = tested on: Mus musculus; test: Hypolipidemic activity in tyloxapol-induced Kunming mouse model of hyperlipidemia assessed as increase in serum SOD level at 100 mg/kg, po measured after 24 hrs; type: functional, organism-based
[20] = tested on: Mus musculus; test: Hypolipidemic activity in tyloxapol-induced Kunming mouse model of hyperlipidemia assessed as reduction in liver fibrosis at 50 to 100 mg/kg, po measured after 24 hrs by Masson's trichrome staining based assay; type: functional, organism-based; details: dose 50-100 mg/kg
[21] = tested on: 3T3-L1; test: Activation of AMPK in mouse 3T3-L1 preadipocytes assessed as increase in AMPK phosphorylation at 0.1 to 15 uM by Western blot analysis; type: cell-based; details: filed as activator, dose 0.1-15 µM
[22] = tested on: HepG2; test: Activation of AMPK in oleic, palmitic, linoleic and arachidonic acid 29:47:18:6 (v/v)-induced human HepG2 cells assessed as increase in AMPK phosphorylation at 1 uM by Western blot analysis relative to control; details: filed as activator
[23] = tested on: Mus musculus; test: In vivo induction of AMPK in tyloxapol-induced Kunming mouse model of hyperlipidemia assessed as increase in AMPKalpha phosphorylation in liver at 50 to 100 mg/kg, po measured after 24 hrs by Western blot analysis; type: functional, organism-based; details: dose 50-100 mg/kg
[24] = tested on: Mus musculus; test: In vivo induction of AMPK in tyloxapol-induced Kunming mouse model of hyperlipidemia assessed as increase in CPT-1A phosphorylation in liver at 50 to 100 mg/kg, po measured after 24 hrs by Western blot analysis; type: functional, organism-based; details: dose 50-100 mg/kg
[25] = tested on: Mus musculus; test: Hypolipidemic activity in tyloxapol-induced Kunming mouse model of hyperlipidemia assessed as reduction in serum total cholesterol level administered orally measured after 24 hrs; type: functional, organism-based
[26] = tested on: Mus musculus; test: In vivo effect on PPAR signaling in tyloxapol-induced Kunming mouse model of hyperlipidemia assessed as increase in mTOR phosphorylation in liver administered orally measured after 24 hrs by Western blot analysis; type: functional, organism-based
[27] = tested on: Mus musculus; test: In vivo induction of AMPK in tyloxapol-induced Kunming mouse model of hyperlipidemia assessed as increase in ACC phosphorylation in white adipose tissue at 50 to 100 mg/kg, po measured after 24 hrs by Western blot analysis; type: functional, organism-based; details: dose 50-100 mg/kg
[28] = tested on: Mus musculus; test: Hypolipidemic activity in tyloxapol-induced Kunming mouse model of hyperlipidemia assessed as reduction in liver LDL-C level administered orally measured after 24 hrs; type: functional, organism-based
[29] = tested on: HepG2; test: Hypolipidemic activity in oleic, palmitic, linoleic and arachidonic acid 29:47:18:6 (v/v)-induced hyperlipidemia in human HepG2 cells assessed as reduction in lipid content at 20 uM by Oil Red O staining based assay relative to control; type: functional; design: scale not given: the % may be the effect or the level left
[30] = tested on: Mus musculus; test: Hypolipidemic activity in tyloxapol-induced Kunming mouse model of hyperlipidemia assessed as perirenal white adipose tissue index at 50 mg/kg, po measured after 24 hrs (reference value: 18.14 +/- 1.44); type: functional
[31] = tested on: HepG2; test: Hypolipidemic activity in oleic, palmitic, linoleic and arachidonic acid 29:47:18:6 (v/v)-induced hyperlipidemia in human HepG2 cells assessed as reduction in lipid content at 7.5 uM by Oil Red O staining based assay relative to control; type: functional; design: scale not given: the % may be the effect or the level left
[32] = tested on: HepG2; test: Activation of AMPK in oleic, palmitic, linoleic and arachidonic acid 29:47:18:6 (v/v)-induced human HepG2 cells assessed as increase in ACC phosphorylation at 1 uM by Western blot analysis relative to control
[33] = tested on: Mus musculus; test: In vivo induction of AMPK in tyloxapol-induced Kunming mouse model of hyperlipidemia assessed as increase in CPT-1A phosphorylation in white adipose tissue at 50 to 100 mg/kg, po measured after 24 hrs by Western blot analysis; type: functional, organism-based; details: dose 50-100 mg/kg

## CC(C)=CCC/C(C)=C/Cc1c(O)cc(O)c(C(=O)/C=C/c2ccc(O)cc2)c1O
[1]
  Activity: Dose-dependent effect
[2]
  Activity: Dose-dependent effect
[3]
  Activity: Dose-dependent effect
[4]
  Activity: Active
[5]
  Activity: Non-Toxic
[6]
  Activity_index: 2.8
[7]
  Activity: 71.33%
[8]
  Activity: Active
[9]
  Activity: 49%
[10]
  Activity: Dose-dependent effect
[11]
  Activity: Active
[12]
  Activity: Active
[13]
  Activity: Dose-dependent effect
[14]
  Activity: 72.12%
[15]
  Activity: Active
[16]
  Activity_index: 2.62
[17]
  Activity: Dose-dependent effect
[18]
  Activity: 54.38%
[19]
  Activity: Active
[20]
  Activity: Active
[21]
  Activity: Active
[22]
  Activity: 42.9%
[23]
  Activity: Active
[24]
  Activity: Active
[25]
  Activity: Dose-dependent effect
[26]
  Activity: Dose-dependent effect
[27]
  Activity: Active
[28]
  Activity: Dose-dependent effect
[29]
  Activity: 66.31%
[30]
  Activity_index: 9.52
[31]
  Activity: 43.86%
[32]
  Activity: 31.7%
[33]
  Activity: Active

Reference: ChEMBL document CHEMBL4765421, “Synthesis of natural 3'-Prenylchalconaringenin and biological evaluation of ameliorating non-alcoholic fatty liver disease and metabolic syndrome” (Eur J Med Chem, 2020)
